Values after ≈ are worked out from the molar mass of the structure shown.
Key:
Format in all cases: functional
[1] = test system: Staphylococcus aureus; experiment: In vitro antimicrobial activity against methicillin resistant Staphylococcus aureus 1131.
[2] = test system: Staphylococcus aureus; experiment: In vitro antimicrobial activity against penicillin resistant Staphylococcus aureus 853.
[3] = test system: Staphylococcus aureus; experiment: In vitro antimicrobial activity against penicillin sensitive Staphylococcus aureus 663.
[4] = test system: Staphylococcus epidermidis; experiment: In vitro antimicrobial activity against Staphylococcus epidermidis.
[5] = test system: Acholeplasma laidlawii; experiment: In vitro antimicrobial activity against Acholeplasma laidlawii.
[6] = test system: Bacillus cereus; experiment: In vitro antimicrobial activity against Bacillus cereus.
[7] = test system: Candida albicans; experiment: In vitro antimicrobial activity against Candida albicans.
[8] = test system: Escherichia coli; experiment: In vitro antimicrobial activity against Escherichia coli 182+PMBN.
[9] = test system: Saccharomyces cerevisiae; experiment: In vitro antimicrobial activity against Saccharomyces cerevisiae.

Row | Compound | MIC [1] | MIC [2] | MIC [3] | MIC [4] | MIC [5] | MIC [6] | MIC [7] | MIC [8] | MIC [9]
1 | CCCOc1c2cccc1Cc1cc3cc(c1OCCC)Cc1cccc(c1OCCC)Cc1cc(cc(c1OCCC)C2)C(=O)N[C@@H](C)C(=O)NCCN(C(=O)OC(C)(C)C)CCNC(=O)[C@H](C)NC3=O | 64 µg/mL (≈ 64.6 µM) | > 64 µg/mL | 64 µg/mL (≈ 64.6 µM) | 32 µg/mL (≈ 32.3 µM) |  |  |  |  | 
2 | CCCOc1c2cccc1Cc1cc3cc(c1OCCC)Cc1cccc(c1OCCC)Cc1cc(cc(c1OCCC)C2)C(=O)N[C@@H](C)C(=O)NCCNCCNC(=O)[C@H](C)NC3=O | 4 µg/mL (≈ 4.49 µM) | 16 µg/mL (≈ 18 µM) | 8 µg/mL (≈ 8.99 µM) | 4 µg/mL (≈ 4.49 µM) | > 128 µg/mL | 16 µg/mL (≈ 18 µM) | > 128 µg/mL | 32 µg/mL (≈ 35.9 µM) | > 128 µg/mL
3 | CCCOc1c2cccc1Cc1cc3cc(c1OCCC)Cc1cccc(c1OCCC)Cc1cc(cc(c1OCCC)C2)C(=O)N[C@@H](C)C(=O)N[C@@H](C)C(=O)NCCNCCNC(=O)[C@H](C)NC(=O)[C@@H](C)NC3=O [VANCOMYCIN MIMIC] | 32 µg/mL (≈ 31 µM) | 32 µg/mL (≈ 31 µM) | 32 µg/mL (≈ 31 µM) | 32 µg/mL (≈ 31 µM) |  |  |  |  | 
4 | CCCOc1c2cccc1Cc1cc3cc(c1OCCC)Cc1cccc(c1OCCC)Cc1cc(cc(c1OCCC)C2)C(=O)N[C@H](C)C(=O)NCCNCCNC(=O)[C@@H](C)NC3=O | 4 µg/mL (≈ 4.49 µM) | 8 µg/mL (≈ 8.99 µM) | 8 µg/mL (≈ 8.99 µM) | 8 µg/mL (≈ 8.99 µM) |  |  |  |  | 
5 | CN[C@H](CC(C)C)C(=O)N[C@H]1C(=O)N[C@@H](CC(N)=O)C(=O)N[C@H]2C(=O)N[C@H]3C(=O)N[C@H](C(=O)N[C@H](C(=O)O)c4cc(O)cc(O)c4-c4cc3ccc4O)[C@H](O)c3ccc(c(Cl)c3)Oc3cc2cc(c3O[C@@H]2O[C@H](CO)[C@@H](O)[C@H](O)[C@H]2O[C@H]2C[C@](C)(N)[C@H](O)[C@H](C)O2)Oc2ccc(cc2Cl)[C@H]1O [VANCOMYCIN] |  |  |  |  | > 128 µg/mL | 2 µg/mL (≈ 1.38 µM) | > 128 µg/mL |  | > 128 µg/mL

From ChEMBL document CHEMBL1151088 (1996)
